# Data taken from PMC9482650, “Quantitative fragmentomics allow affinity mapping of interactomes” (Nature Communications, 2022).
# Ends that are not written are not given here.
# Tests used:
# Test in all cases: Holdup assay
# Format in all cases: binding
# CARD14 PDZ = CARD14 PDZ (Homo sapiens, UniProt Q9BXL6); details: sheet PPI_convert; read-out: affinity to PDZ CARD14 (converted)
# PARD3B_2 PDZ = PARD3B_2 PDZ (Homo sapiens, UniProt Q8TEW8); details: sheet PPI_convert; read-out: affinity to PDZ PARD3B_2 (converted)
# Inadl_5 PDZ = Inadl_5 PDZ (Homo sapiens, UniProt Q8NI35); details: composite holdup affinity; 0.00=below quantification threshold; read-out: COMP pKd (converted)
# PDZRN3_2 PDZ = PDZRN3_2 PDZ (Homo sapiens, UniProt Q9UPQ7); details: sheet PPI_convert; read-out: affinity to PDZ PDZRN3_2 (converted)
# MAGIX PDZ = MAGIX PDZ (Homo sapiens, UniProt Q9H6Y5); details: sheet PPI_convert; read-out: affinity to PDZ MAGIX (converted)
# Text: Supplement 41467_2022_33018_MOESM4_ESM.xlsx, sheet "PPI_convert" | column: MAGIX
# GRIP2_5 PDZ = GRIP2_5 PDZ (Homo sapiens, UniProt Q9C0E4); details: composite holdup affinity; 0.00=below quantification threshold; read-out: COMP pKd (converted)
# LIN7A PDZ = LIN7A PDZ (Homo sapiens, UniProt O14910); details: composite holdup affinity; 0.00=below quantification threshold; read-out: COMP pKd (converted)
# Inadl_8 PDZ = Inadl_8 PDZ (Homo sapiens, UniProt Q8NI35); details: composite holdup affinity; 0.00=below quantification threshold; read-out: COMP pKd (converted)
# LNX1_2 PDZ = LNX1_2 PDZ (Homo sapiens, UniProt Q8TBB1); details: composite holdup affinity; 0.00=below quantification threshold; read-out: COMP pKd (converted)
# GRIP1_1 PDZ = GRIP1_1 PDZ (Homo sapiens, UniProt Q9Y3R0); details: sheet PPI_convert; read-out: affinity to PDZ GRIP1_1 (converted)
# PDZRN4_2 PDZ = PDZRN4_2 PDZ (Homo sapiens, UniProt Q6ZMN7); details: sheet PPI_convert; read-out: affinity to PDZ PDZRN4_2 (converted)
# FRMPD3 PDZ = FRMPD3 PDZ (Homo sapiens, UniProt Q5JV73); details: composite holdup affinity; 0.00=below quantification threshold; read-out: COMP pKd (converted)
# FRMPD2_1 PDZ = FRMPD2_1 PDZ (Homo sapiens, UniProt Q68DX3); details: composite holdup affinity; 0.00=below quantification threshold; read-out: COMP pKd (converted)
# MAGI1_5 PDZ = MAGI1_5 PDZ (Homo sapiens, UniProt Q96QZ7); details: sheet PPI_convert; read-out: affinity to PDZ MAGI1_5 (converted)
# GRIP2_4 PDZ = GRIP2_4 PDZ (Homo sapiens, UniProt Q9C0E4); details: composite holdup affinity; 0.00=below quantification threshold; read-out: COMP pKd (converted)
# MAGI1_6 PDZ = MAGI1_6 PDZ (Homo sapiens, UniProt Q96QZ7); details: sheet PPI_convert; read-out: affinity to PDZ MAGI1_6 (converted)
# Sequence of MAGI1_6 PDZ (Q96QZ7 1124-1206 limits assumed): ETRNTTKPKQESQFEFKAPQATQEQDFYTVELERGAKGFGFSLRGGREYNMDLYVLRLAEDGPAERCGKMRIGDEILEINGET
# Sequence of PDZRN4_2 PDZ (Q6ZMN7 402-486 limits assumed): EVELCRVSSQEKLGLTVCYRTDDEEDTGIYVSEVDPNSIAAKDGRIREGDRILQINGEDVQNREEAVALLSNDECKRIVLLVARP
# Sequence of MAGI1_5 PDZ (Q96QZ7 970-1066 limits assumed): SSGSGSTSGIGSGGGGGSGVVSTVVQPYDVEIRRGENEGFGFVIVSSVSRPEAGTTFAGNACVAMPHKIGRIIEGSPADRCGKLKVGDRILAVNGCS
# Sequence of LNX1_2 PDZ (Q8TBB1 381-464 limits assumed): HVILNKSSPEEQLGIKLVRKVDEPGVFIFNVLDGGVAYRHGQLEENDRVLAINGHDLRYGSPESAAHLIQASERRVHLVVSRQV
# Sequence of LIN7A PDZ (O14910 108-190 limits assumed): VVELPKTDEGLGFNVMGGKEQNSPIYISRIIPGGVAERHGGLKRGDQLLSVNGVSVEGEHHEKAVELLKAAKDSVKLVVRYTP
# Sequence of Inadl_5 PDZ (Q8NI35 686-772 limits assumed): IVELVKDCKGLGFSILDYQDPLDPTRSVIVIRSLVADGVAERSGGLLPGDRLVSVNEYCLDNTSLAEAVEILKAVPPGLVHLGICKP
# Sequence of PDZRN3_2 PDZ (Q9UPQ7 419-503 limits assumed): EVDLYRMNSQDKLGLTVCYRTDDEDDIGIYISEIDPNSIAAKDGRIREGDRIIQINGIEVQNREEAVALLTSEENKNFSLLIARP
# Sequence of CARD14 PDZ (Q9BXL6 568-658 limits assumed): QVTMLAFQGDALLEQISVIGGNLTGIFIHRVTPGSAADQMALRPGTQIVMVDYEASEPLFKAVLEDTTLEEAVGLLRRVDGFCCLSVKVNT
# Sequence of GRIP1_1 PDZ (Q9Y3R0 53-136 limits assumed): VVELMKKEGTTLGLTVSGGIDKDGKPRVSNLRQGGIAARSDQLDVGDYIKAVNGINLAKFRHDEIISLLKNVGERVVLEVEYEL
# Sequence of FRMPD2_1 PDZ (Q68DX3 775-861 limits assumed): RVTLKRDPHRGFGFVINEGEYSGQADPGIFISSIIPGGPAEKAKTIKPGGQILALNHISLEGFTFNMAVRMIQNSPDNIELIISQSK
# Sequence of GRIP2_5 PDZ (Q9C0E4 557-641 limits assumed): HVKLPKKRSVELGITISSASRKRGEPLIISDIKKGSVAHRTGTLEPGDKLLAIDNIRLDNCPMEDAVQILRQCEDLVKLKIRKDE
# Sequence of GRIP2_4 PDZ (Q9C0E4 456-545 limits assumed): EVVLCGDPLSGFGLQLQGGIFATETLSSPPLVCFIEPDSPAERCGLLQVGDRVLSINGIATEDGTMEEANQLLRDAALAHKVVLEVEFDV
# Sequence of MAGIX PDZ (Q9H6Y5 125-209): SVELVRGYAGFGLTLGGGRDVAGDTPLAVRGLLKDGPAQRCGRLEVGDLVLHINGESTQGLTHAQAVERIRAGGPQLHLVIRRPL
# Sequence of PARD3B_2 PDZ (Q8TEW8 383-468 limits assumed): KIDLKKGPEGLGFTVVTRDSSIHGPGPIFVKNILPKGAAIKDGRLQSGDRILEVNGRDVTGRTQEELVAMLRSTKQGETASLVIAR
# Sequence of Inadl_8 PDZ (Q8NI35 1437-1520 limits assumed): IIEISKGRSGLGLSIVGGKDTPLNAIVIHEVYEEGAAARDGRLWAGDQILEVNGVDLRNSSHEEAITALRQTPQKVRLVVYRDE
# Sequence of FRMPD3 PDZ (Q5JV73 21-98 limits assumed): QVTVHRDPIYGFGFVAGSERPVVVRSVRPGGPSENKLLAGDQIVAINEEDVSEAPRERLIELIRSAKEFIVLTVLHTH
Sequence,Kd (CARD14 PDZ) [µM],Kd (PARD3B_2 PDZ) [µM],Kd (Inadl_5 PDZ) [µM],Kd (PDZRN3_2 PDZ) [µM],Kd (MAGIX PDZ) [µM],Kd (GRIP2_5 PDZ) [µM],Kd (LIN7A PDZ) [µM],Kd (Inadl_8 PDZ) [µM],Kd (LNX1_2 PDZ) [µM],Kd (GRIP1_1 PDZ) [µM],Kd (PDZRN4_2 PDZ) [µM],Kd (FRMPD3 PDZ) [µM],Kd (FRMPD2_1 PDZ) [µM],Kd (MAGI1_5 PDZ) [µM],Kd (GRIP2_4 PDZ) [µM],Kd (MAGI1_6 PDZ) [µM]
RTRQRNETQV [HPV51-E6],45.7,40.7,398,69.2,–,–,–,–,–,–,–,–,–,–,–,–
RHTTSTETAV [HPV30-E6],–,–,–,–,4.47,178,158,115,214,25.7,33.1,174,72.4,9.55,219,18.6
